# Biological target: T1, human mGlu5a receptor (Homo sapiens, UniProt P41594)
# T1 construct: expressed in transfected cells
# Test: Intracellular Ca2+ mobilization assay
# Assay type: cell-based
# Settings: for Emax: HEK293, maximal response in % of the maximal stimulatory effect obtained with saturating concentrations of L-glutamate, HEK-293 human mGlu5a cells, L-glutamate at EC20, read-out: Efficacy (%); for EC50: HEK-293 cells stably transfected with human mGlu5a receptor, pre-incubation 10-30 min with test compound, then L-glutamate at EC20 (typically around 80 μM), Fluo-4AM fluorescence, read-out: EC50 (nM) mGluR5 PAM
# Protocol: A monoclonal HEK-293 cell line stably transfected with a cDNA encoding for the human mGlu5a receptor was generated; for the work with mGlu5 Positive Allosteric Modulators (PAMs), a cell line with low receptor expression levels and low constitutive receptor activity was selected to allow the differentiation of agonistic versus PAM activity. Cells were cultured according to standard protocols (Freshney, 2000) in Dulbecco's Modified Eagle Medium with high glucose supplemented with 1 mM glutamine, 10% (vol/vol) heat-inactivated bovine calf serum, Penicillin/Streptomycin, 50 μg/ml hygromycin and 15 μg/ml blasticidin (all cell culture reagents and antibiotics from Invitrogen, Basel, Switzerland).
# About 24 hrs before an experiment, 5×10^4 cells/well were seeded in poly-D-lysine coated, black/clear-bottomed 96-well plates. The cells were loaded with 2.5 μM Fluo-4AM in loading buffer (1×HBSS, 20 mM HEPES) for 1 hr at 37° C. and washed five times with loading buffer. The cells were transferred into a Functional Drug Screening System 7000 (Hamamatsu, Paris, France), and 11 half logarithmic serial dilutions of test compound at 37° C. were added and the cells were incubated for 10-30 min. with on-line recording of fluorescence. Following this pre-incubation step, the agonist L-glutamate was added to the cells at a concentration corresponding to EC20 (typically around 80 μM) with on-line recording of fluorescence; in order to account for day-to-day variations in the responsiveness of cells, the EC20 of glutamate was determined immediately ahead of each experiment by recording of a full dose-response curve of glutamate.
# Responses were measured as peak increase in fluorescence minus basal (i.e. fluorescence without addition of L-glutamate), normalized to the maximal stimulatory effect obtained with saturating concentrations of L-glutamate. Graphs were plotted with the % maximal stimulatory using XLfit, a curve fitting program that iteratively plots the data using Levenburg Marquardt algorithm. The single site competition analysis equation used was y=A+((B−A)/(1+((x/C)D))), where y is the % maximal stimulatory effect, A is the minimum y, B is the maximum y, C is the EC50, x is the log 10 of the concentration of the competing compound and D is the slope of the curve (the Hill Coefficient). From these curves the EC50 (concentration at which half maximal stimulation was achieved), the Hill coefficient as well as the maximal response in % of the maximal stimulatory effect obtained with saturating concentrations of L-glutamate were calculated.
# A depression of the signal observed after addition of the EC20 concentration of L-glutamate was indicative of an inhibitory activity of the test compound.
# T1 sequence (P41594 21-1180 isoform P41594-2 limits assumed): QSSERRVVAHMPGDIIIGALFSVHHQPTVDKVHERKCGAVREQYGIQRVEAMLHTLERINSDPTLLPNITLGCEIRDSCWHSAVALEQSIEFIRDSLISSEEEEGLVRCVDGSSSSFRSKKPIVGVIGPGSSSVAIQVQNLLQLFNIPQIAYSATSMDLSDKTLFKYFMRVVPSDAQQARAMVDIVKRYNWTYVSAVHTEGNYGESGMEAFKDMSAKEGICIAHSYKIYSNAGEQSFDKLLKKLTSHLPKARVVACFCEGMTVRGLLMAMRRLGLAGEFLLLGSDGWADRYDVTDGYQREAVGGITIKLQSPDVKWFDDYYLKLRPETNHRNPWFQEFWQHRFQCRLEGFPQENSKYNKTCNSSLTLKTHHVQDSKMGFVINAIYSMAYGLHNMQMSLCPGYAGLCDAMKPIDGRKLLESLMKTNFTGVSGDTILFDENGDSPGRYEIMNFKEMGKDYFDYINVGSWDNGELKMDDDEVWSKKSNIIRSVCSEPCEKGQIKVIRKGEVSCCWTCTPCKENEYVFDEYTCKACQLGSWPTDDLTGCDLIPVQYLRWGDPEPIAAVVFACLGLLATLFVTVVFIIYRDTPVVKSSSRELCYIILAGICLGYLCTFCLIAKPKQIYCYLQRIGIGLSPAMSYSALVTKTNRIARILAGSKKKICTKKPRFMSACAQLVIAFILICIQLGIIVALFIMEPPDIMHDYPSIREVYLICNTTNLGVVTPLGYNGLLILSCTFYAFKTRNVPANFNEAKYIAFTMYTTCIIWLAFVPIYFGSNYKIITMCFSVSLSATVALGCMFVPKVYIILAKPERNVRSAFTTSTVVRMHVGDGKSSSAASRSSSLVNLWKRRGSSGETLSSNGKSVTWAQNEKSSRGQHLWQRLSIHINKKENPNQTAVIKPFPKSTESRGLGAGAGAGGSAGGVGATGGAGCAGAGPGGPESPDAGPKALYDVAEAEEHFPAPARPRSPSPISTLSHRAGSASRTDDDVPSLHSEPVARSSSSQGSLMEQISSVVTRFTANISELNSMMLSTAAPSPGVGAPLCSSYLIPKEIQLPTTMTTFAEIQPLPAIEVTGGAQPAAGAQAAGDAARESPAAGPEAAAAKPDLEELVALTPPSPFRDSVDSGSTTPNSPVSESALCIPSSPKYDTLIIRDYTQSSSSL
Emax,EC50,SMILES
84%,103 nM,"O=C1N(Cc2ccc(C#Cc3ccccc3)cn2)CCN1c1ccccc1 [Example 37, 1-Phenyl-3-(5-phenylethynyl-pyridin-2-ylmethyl)-imidazolidin-2-one]"
94%,161 nM,"CC1(C)CCC(=O)N(Cc2ccc(C#Cc3ccccc3)cn2)C1 [Example 38, 5,5-Dimethyl-1-(5-phenylethynyl-pyridin-2-ylmethyl)-piperidin-2-one]"
123%,140 nM,"CN1CCCN(Cc2ccc(C#Cc3ccccc3)cn2)C1=O [Example 40, 1-Methyl-3-(5-phenylethynyl-pyridin-2-ylmethyl)-tetrahydro-pyrimidin-2-one]"
120%,631 nM,"O=C1OCCN1Cc1ncc(C#Cc2ccccc2)cn1 [Example 42, 3-(5-Phenylethynyl-pyrimidin-2-ylmethyl)-oxazolidin-2-one]"
84%,195 nM,"CN(c1ncc(C#Cc2ccccc2)cn1)C1CCOCC1 [Example 43, Methyl-(5-phenylethynyl-pyrimidin-2-yl)-(tetrahydro-pyran-4-yl)-amine]"
103%,338 nM,CN(c1ccc(C#Cc2ccccc2)cn1)C1CCOCC1 [Example 44]

# From patent publication US8716316B2 (Hoffmann-La Roche Inc., priority 2009, dated 2014)
